# Literature values in PubChem BioAssay AID1259409 (Chemical Carcinogenesis Research Information System (CCRIS), 2018).
# Tested on: rodent chemically induced tumor inhibition, incidence and multiplicity
# Assay: CCRIS tumor inhibitor studies
# Settings: Promoter: NONE USED
smiles,measurement,setting,value
Cc1cc(C(C)(C)C)c(O)c(C(C)(C)C)c1,"tumour outcome (control, treated, inhibition, significance)","Carcinogen: N-BIS(2-HYDROXYPROPYL)NITROSAMINE, 53609-64-6, Dose [Inhibitor]: 0, 1% IN DIET FOR 30 WK BEGINNING POST CARCINOGEN TREATMENT (STUDY DURATION: 32 WK), Route [Inhibitor]: ORAL, Species: RAT, Strain/Sex: F344/MALE, Target Tissue: Type of Lesion: LUNG: ADENOMA, Dose [Carcinogen]: 0.1% IN DRINKING WATER FOR 2 WK","100%, 85%, 15%, not calculated"
same,"tumour outcome (control, treated, inhibition, significance)","Carcinogen: N-BIS(2-HYDROXYPROPYL)NITROSAMINE, 53609-64-6, Dose [Inhibitor]: 0, 1% IN DIET FOR 30 WK BEGINNING POST CARCINOGEN TREATMENT (STUDY DURATION: 32 WK), Route [Inhibitor]: ORAL, Species: RAT, Strain/Sex: F344/MALE, Target Tissue: Type of Lesion: LUNG: CARCINOMA, Dose [Carcinogen]: 0.1% IN DRINKING WATER FOR 2 WK","45%, 5%, 89%, p<0.01"
same,"tumour outcome (control, treated, inhibition, significance)","Carcinogen: N-BIS(2-HYDROXYPROPYL)NITROSAMINE, 53609-64-6, Dose [Inhibitor]: 0, 1% IN DIET FOR 30 WK BEGINNING POST CARCINOGEN TREATMENT (STUDY DURATION: 32 WK), Route [Inhibitor]: ORAL, Species: RAT, Strain/Sex: F344/MALE, Target Tissue: Type of Lesion: THYROID: ADENOMA, Dose [Carcinogen]: 0.1% IN DRINKING WATER FOR 2 WK","5%, 60%, -1100%, not calculated"
same,"tumour outcome (control, treated, inhibition, significance)","Carcinogen: N-BIS(2-HYDROXYPROPYL)NITROSAMINE, 53609-64-6, Dose [Inhibitor]: 0, 1% IN DIET FOR 30 WK BEGINNING POST CARCINOGEN TREATMENT (STUDY DURATION: 32 WK), Route [Inhibitor]: ORAL, Species: RAT, Strain/Sex: F344/MALE, Target Tissue: Type of Lesion: THYROID: CARCINOMA, Dose [Carcinogen]: 0.1% IN DRINKING WATER FOR 2 WK","20%, 15%, 25%, not calculated"
same,"tumour outcome (control, treated, inhibition, significance)","Carcinogen: N-METHYL-N'-NITRO-N-NITROSOGUANIDINE, 70-25-7, N-ETHYL-N-HYDROXYETHYLNITROSAMINE, 13147-25-6, N-METHYLBENZYLNITROSAM, Carcinogen: N-METHYL-N'-NITRO-N-NITROSOGUANIDINE, 70-25-7, N-ETHYL-N-HYDROXYETHYLNITROSAMINE, 13147-25-6, N-METHYLBENZYLNITROSAM, Dose [Inhibitor]: 0, 0.7% IN DIET FOR 36 WK (STUDY DURATION: 36 WK), Route [Inhibitor]: ORAL, Species: RAT, Strain/Sex: F344/MALE, Target Tissue: Type of Lesion: COLON: CARCINOMA, Dose [Carcinogen]: 100 MG/KG BW MNNG ONCE, 750 MG/KG BW EHEN ONCE, 0.5 MG/KG BW MBN TWICE, 40 MG/KG BW DMH 4 TIMES, 0.05% DBN IN DRINKING W","10/18 (56%), 0/18 (0%), 100%, p<0.01"
same,"tumour outcome (control, treated, inhibition, significance)","Carcinogen: N-METHYL-N'-NITRO-N-NITROSOGUANIDINE, 70-25-7, N-ETHYL-N-HYDROXYETHYLNITROSAMINE, 13147-25-6, N-METHYLBENZYLNITROSAM, Carcinogen: N-METHYL-N'-NITRO-N-NITROSOGUANIDINE, 70-25-7, N-ETHYL-N-HYDROXYETHYLNITROSAMINE, 13147-25-6, N-METHYLBENZYLNITROSAM, Dose [Inhibitor]: 0, 0.7% IN DIET FOR 36 WK (STUDY DURATION: 36 WK), Route [Inhibitor]: ORAL, Species: RAT, Strain/Sex: F344/MALE, Target Tissue: Type of Lesion: KIDNEY: RENAL CELL TUMOR, Dose [Carcinogen]: 100 MG/KG BW MNNG ONCE, 750 MG/KG BW EHEN ONCE, 0.5 MG/KG BW MBN TWICE, 40 MG/KG BW DMH 4 TIMES, 0.05% DBN IN DRINKING W","8/18 (44%), 1/18 (6%), 86%, p<0.01"
same,outcome,"Carcinogen: N-METHYL-N'-NITRO-N-NITROSOGUANIDINE, 70-25-7, N-ETHYL-N-HYDROXYETHYLNITROSAMINE, 13147-25-6, N-METHYLBENZYLNITROSAM, Carcinogen: N-METHYL-N'-NITRO-N-NITROSOGUANIDINE, 70-25-7, N-ETHYL-N-HYDROXYETHYLNITROSAMINE, 13147-25-6, N-METHYLBENZYLNITROSAM, Dose [Inhibitor]: 0, 0.7% IN DIET FOR 36 WK (STUDY DURATION: 36 WK), Route [Inhibitor]: ORAL, Species: RAT, Strain/Sex: F344/MALE, Target Tissue: Type of Lesion: THYROID GLAND: ADENOMA OR CARCINOMA, Dose [Carcinogen]: 100 MG/KG BW MNNG ONCE, 750 MG/KG BW EHEN ONCE, 0.5 MG/KG BW MBN TWICE, 40 MG/KG BW DMH 4 TIMES, 0.05% DBN IN DRINKING W","0/18 (0%), 6/18 (33%), -333%, p<0.05"
same,"tumour outcome (control, treated, inhibition, significance)","Carcinogen: N-METHYL-N-NITROSOUREA, 684-93-5, Dose [Inhibitor]: 0.3% IN DIET FROM WEANING ONWARD (STUDY DURATION: 6 MO AFTER CARCINOGEN ADMINISTRATION), Route [Inhibitor]: ORAL, Species: RAT, Strain/Sex: SPRAGUE-DAWLEY/FEMALE, Target Tissue: Type of Lesion: MAMMARY GLAND: ADENOCARCINOMA, Dose [Carcinogen]: SINGLE INJECTION VIA DORSAL TAIL VEIN AT 5 MG/100 G BODY WEIGHT. MNU WAS WET IN 3% ACETIC ACID + DISSOLVED IN WATER (DOU","21/30 (70%), 22/30 (73%), -4%, not significant"
same,"tumour outcome (control, treated, inhibition, significance)","Carcinogen: N-METHYL-N-NITROSOUREA, 684-93-5, Dose [Inhibitor]: 0.3% IN HIGH POLYUNSATURATED FAT DIET DAILY STARTING 29 D BEFORE CARCINOGEN TREATMENT AND CONTINUING FOR THE DURATION OF, Route [Inhibitor]: ORAL, Species: RAT, Strain/Sex: SPRAGUE-DAWLEY/FEMALE, Target Tissue: Type of Lesion: MAMMARY GLAND: ADENOCARCINOMA, Dose [Carcinogen]: 5 MG/100 G BW ONCE AT 50 D OF AGE","70%, 73%, -4%, not calculated"
same,"tumour outcome (control, treated, inhibition, significance)","Carcinogen: URETHANE, 51-79-6, Dose [Inhibitor]: 0.75% IN DIET 1/WK FOR 24 HR AFTER OVERNIGHT FAST FOR 8 WK 1 WK AFTER CARCINOGEN TREATMENT (STUDY DURATION: 4 MO), Route [Inhibitor]: ORAL, Species: MOUSE, Strain/Sex: STRAIN-A/MALE, Target Tissue: Type of Lesion: LUNG: TYPE II ALVEOLAR CELL TUMORS, CLARA CELL TUMORS, Dose [Carcinogen]: 250 MG/KG, ONCE AT 8 WK OF AGE","85%, 91%, -7%, not significant"
same,"tumour outcome (control, treated, inhibition, significance)","Carcinogen: URETHANE, 51-79-6, Dose [Inhibitor]: 0.75% IN DIET 1/WK FOR 24 HR AFTER OVERNIGHT FAST FOR 8 WK 1 WK AFTER CARCINOGEN TREATMENT (STUDY DURATION: 4 MO), Route [Inhibitor]: ORAL, Species: MOUSE, Strain/Sex: STRAIN-A/MALE, Target Tissue: Type of Lesion: LUNG: TYPE II ALVEOLAR CELL TUMORS, CLARA CELL TUMORS, Dose [Carcinogen]: 500 MG/KG, ONCE AT 8 WK OF AGE","100%, 100%, 0%, not significant"
same,"tumour outcome (control, treated, inhibition, significance)","Carcinogen: URETHANE, 51-79-6, Dose [Inhibitor]: 0.75% IN DIET 1/WK FOR 24 HR AFTER OVERNIGHT FAST FOR 8 WK BEGINNING 1 WK POST CARCINOGEN TREATMENT (STUDY DURATION: 4 M, Route [Inhibitor]: ORAL, Species: MOUSE, Strain/Sex: STRAIN A/MALE, Target Tissue: Type of Lesion: LUNG: TYPE II ALVEOLAR CELL TUMORS, CLARA CELL TUMORS, Dose [Carcinogen]: 500 MG/KG, ONCE AT 8 WK OF AGE","100%, 97%, 3%, not significant"
same,outcome,"Carcinogen: URETHANE, 51-79-6, Dose [Inhibitor]: 0.75% IN DIET FOR 2 WK BEFORE CARCINOGEN TREATMENT (STUDY DURATION: 4 MO), Route [Inhibitor]: ORAL, Species: MOUSE, Strain/Sex: STRAIN-A/MALE, Target Tissue: Type of Lesion: LUNG: TYPE II ALVEOLAR CELL TUMORS, CLARA CELL TUMORS, Dose [Carcinogen]: 1000 MG/KG, ONCE","100%, 100%, o%, not significant"
same,"tumour outcome (control, treated, inhibition, significance)","Carcinogen: URETHANE, 51-79-6, Dose [Inhibitor]: 0.75% IN DIET, DAILY BEGINNING 1 D AFTER CARCINOGEN TREATMENT FOR 8 WK (STUDY DURATION: 4 MO), Route [Inhibitor]: ORAL, Species: MOUSE, Strain/Sex: STRAIN-A/MALE, Target Tissue: Type of Lesion: LUNG: TYPE II ALVEOLAR CELL TUMORS, CLARA CELL TUMORS, Dose [Carcinogen]: 250 MG/KG, ONCE AT 8 WK OF AGE","96%, 90%, 6%, not significant"
same,"tumour outcome (control, treated, inhibition, significance)","Carcinogen: URETHANE, 51-79-6, Dose [Inhibitor]: 0.75% IN DIET, DAILY BEGINNING 1 D AFTER CARCINOGEN TREATMENT FOR 8 WK (STUDY DURATION: 40 MO), Route [Inhibitor]: ORAL, Species: MOUSE, Strain/Sex: STRAIN-A/MALE, Target Tissue: Type of Lesion: LUNG: TYPE II ALVEOLAR CELL TUMORS, CLARA CELL TUMORS, Dose [Carcinogen]: 500 MG/KG, ONCE AT 8 WK OF AGE","100%, 100%, 0%, not significant"
same,"tumour outcome (control, treated, inhibition, significance)","Carcinogen: URETHANE, 51-79-6, Dose [Inhibitor]: 300 MG/KG 1 WK AFTER CARCINOGEN DOSE 1/WK FOR 8 WK (STUDY DURATION: 4 MO), Route [Inhibitor]: INTRAPERITONEAL, Species: MOUSE, Strain/Sex: STRAIN-A/MALE, Target Tissue: Type of Lesion: LUNG: TYPE II ALVEOLAR CELL TUMORS, CLARA CELL TUMORS, Dose [Carcinogen]: 500 MG/KG, ONCE AT 8 WK OF AGE","97%, 100%, -3%, not significant"
